Experimental data reported in ChEMBL document CHEMBL3085700 (J Med Chem, 2013).
Activity calls are given as the source filed them. The calls are words filed in the database; no cut-off is given here.

Columns and labels:
[1] = target: T1, Monoglyceride lipase (Mus musculus) (UniProt O35678); assay: Inhibition of TAMRA-FP-labeled MAGL in mouse brain membrane at 10 uM after 1 hr by fluorescent gel scanning assay; type: cell membranes
T1 sequence (whole entry): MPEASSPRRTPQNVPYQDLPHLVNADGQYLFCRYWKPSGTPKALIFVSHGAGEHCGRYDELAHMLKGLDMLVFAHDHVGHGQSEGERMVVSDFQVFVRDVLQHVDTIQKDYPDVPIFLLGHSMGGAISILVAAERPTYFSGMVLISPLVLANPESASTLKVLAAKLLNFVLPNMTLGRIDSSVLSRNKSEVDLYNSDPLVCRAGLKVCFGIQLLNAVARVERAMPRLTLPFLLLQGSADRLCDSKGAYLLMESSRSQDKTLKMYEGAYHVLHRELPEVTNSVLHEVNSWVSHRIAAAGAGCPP

[2] = target: T2, Monoglyceride lipase (Homo sapiens) (UniProt Q99685); assay: Inhibition of human recombinant MAGL overexpressed in HEK cells using 2-AG as substrate at 10 uM preincubated for 10 mins before substrate addition measured after 10 mins by HPLC analysis relative to control; type: cell-based; conditions: HEK293
T2 sequence (whole entry): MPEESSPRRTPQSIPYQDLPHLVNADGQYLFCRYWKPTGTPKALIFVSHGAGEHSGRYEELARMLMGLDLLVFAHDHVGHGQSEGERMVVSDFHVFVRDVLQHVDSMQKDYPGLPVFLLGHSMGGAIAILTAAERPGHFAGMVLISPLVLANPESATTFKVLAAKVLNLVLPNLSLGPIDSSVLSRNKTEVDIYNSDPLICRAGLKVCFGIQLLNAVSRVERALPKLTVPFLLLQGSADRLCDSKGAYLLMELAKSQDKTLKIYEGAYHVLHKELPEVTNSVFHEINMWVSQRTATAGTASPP

[3] = target: T3, Fatty-acid amide hydrolase 1 (Homo sapiens) (UniProt O00519); assay: Inhibition of human recombinant FAAH overexpressed in African green monkey COS7 cells using [3H]-anandamide as substrate at 10 to 100 uM preincubated for 10 to 60 mins by liquid scintillation counting analysis; type: cell-based; conditions: COS-7
T3 sequence (whole entry): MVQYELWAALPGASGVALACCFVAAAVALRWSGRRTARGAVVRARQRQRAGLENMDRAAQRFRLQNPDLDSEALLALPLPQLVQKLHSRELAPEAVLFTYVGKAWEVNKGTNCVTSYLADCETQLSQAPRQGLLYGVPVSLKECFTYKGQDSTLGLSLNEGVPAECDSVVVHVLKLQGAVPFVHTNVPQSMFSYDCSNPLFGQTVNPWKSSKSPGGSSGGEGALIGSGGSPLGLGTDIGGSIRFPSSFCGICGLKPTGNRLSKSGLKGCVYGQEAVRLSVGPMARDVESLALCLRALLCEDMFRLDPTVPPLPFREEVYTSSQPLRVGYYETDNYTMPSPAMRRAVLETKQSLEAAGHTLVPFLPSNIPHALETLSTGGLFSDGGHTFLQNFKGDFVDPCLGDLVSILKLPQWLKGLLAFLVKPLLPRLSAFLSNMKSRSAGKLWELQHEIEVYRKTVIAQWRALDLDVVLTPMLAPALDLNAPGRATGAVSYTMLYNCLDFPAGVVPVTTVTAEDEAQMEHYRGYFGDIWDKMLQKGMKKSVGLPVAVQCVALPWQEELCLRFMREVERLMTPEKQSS

[4] = target: T3, Fatty-acid amide hydrolase 1 (Homo sapiens); assay: Inhibition of human recombinant FAAH overexpressed in African green monkey COS7 cells using [3H]-anandamide as substrate at 3 to 30 uM preincubated for 10 to 60 mins by liquid scintillation counting analysis; type: cell-based; conditions: COS-7
[5] = Selectivity ratio for human recombinant FAAH over ovine COX-1
[6] = target: Cannabinoid receptor 1 (Rattus norvegicus) (UniProt P20272); assay: Antagonist activity at CB1 receptor in rat cerebellar membranes assessed as HU210-evoked response up to 10 uM incubated for 10 mins prior to testing by [35S]GTPgammaS binding assay; type: functional, cell membranes; conditions: Cerebellum, Membrane
Chain of Cannabinoid receptor 1 (Rattus norvegicus) (P20272 whole entry): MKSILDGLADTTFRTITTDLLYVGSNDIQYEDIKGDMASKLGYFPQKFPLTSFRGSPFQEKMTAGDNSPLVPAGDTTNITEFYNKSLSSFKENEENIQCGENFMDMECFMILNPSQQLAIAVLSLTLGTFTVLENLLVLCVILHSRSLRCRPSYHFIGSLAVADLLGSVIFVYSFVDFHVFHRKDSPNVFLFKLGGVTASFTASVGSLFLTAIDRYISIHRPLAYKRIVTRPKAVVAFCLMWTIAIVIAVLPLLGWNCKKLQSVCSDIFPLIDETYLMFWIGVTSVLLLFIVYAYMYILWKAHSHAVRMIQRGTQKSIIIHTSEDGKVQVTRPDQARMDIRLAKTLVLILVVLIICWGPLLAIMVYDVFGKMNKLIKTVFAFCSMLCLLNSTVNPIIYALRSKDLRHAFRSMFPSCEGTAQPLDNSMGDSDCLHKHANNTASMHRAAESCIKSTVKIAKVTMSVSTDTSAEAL

[7] = target: T3, Fatty-acid amide hydrolase 1 (Homo sapiens); assay: Noncompetitive inhibition of human recombinant FAAH overexpressed in African green monkey COS7 cells using anandamide as substrate assessed as decrease in Vmax of substrate hydrolysis preincubated for 10 mins before substrate addition measured after 10 mins by HPLC analysis; conditions: COS-7
[8] = target: T4, Prostaglandin G/H synthase 2 (Homo sapiens) (UniProt P35354); assay: Inhibition of human recombinant COX-2 assessed as inhibition of 2-AG cyclooxygenation at 10 uM measured within 10 to 50 secs relative to control
T4 sequence (whole entry): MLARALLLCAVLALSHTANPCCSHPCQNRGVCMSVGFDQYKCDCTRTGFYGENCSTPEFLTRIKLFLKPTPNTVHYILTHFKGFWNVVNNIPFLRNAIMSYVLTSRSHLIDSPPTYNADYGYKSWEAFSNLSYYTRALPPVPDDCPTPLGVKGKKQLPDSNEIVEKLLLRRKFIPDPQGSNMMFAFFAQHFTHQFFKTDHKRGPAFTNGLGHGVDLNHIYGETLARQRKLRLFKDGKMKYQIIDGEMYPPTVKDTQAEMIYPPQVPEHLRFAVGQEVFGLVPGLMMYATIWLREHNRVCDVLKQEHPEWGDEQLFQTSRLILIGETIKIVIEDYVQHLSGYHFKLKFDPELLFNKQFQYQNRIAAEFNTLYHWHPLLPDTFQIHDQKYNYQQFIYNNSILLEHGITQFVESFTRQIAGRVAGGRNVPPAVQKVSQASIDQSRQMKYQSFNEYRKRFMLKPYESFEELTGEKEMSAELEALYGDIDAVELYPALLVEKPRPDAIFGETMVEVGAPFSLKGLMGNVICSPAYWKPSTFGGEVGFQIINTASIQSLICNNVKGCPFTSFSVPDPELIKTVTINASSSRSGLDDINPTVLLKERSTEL

[9] = target: T5, Monoacylglycerol lipase ABHD6 (Mus musculus) (UniProt Q8R2Y0); assay: Inhibition of TAMRA-FP-labeled ABHD6 in mouse brain membrane at 10 uM after 1 hr by fluorescent gel scanning assay; type: cell membranes
T5 sequence (whole entry): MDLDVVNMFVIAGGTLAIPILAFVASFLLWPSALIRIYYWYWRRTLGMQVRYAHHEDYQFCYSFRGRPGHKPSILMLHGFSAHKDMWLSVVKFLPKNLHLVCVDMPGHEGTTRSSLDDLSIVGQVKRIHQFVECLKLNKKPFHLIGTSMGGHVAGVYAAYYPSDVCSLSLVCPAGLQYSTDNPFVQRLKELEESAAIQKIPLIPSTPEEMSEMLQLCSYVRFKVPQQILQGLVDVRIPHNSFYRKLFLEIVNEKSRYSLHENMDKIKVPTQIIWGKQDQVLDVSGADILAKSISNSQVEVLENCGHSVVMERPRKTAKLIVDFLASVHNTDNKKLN

[10] = target: T3, Fatty-acid amide hydrolase 1 (Homo sapiens); assay: Inhibition of human recombinant FAAH overexpressed in African green monkey COS7 cells using [3H]-anandamide as substrate at 10 to 300 uM preincubated for 10 to 60 mins by liquid scintillation counting analysis; type: cell-based; conditions: COS-7
[11] = target: T3, Fatty-acid amide hydrolase 1 (Homo sapiens); assay: Reversible inhibition of human recombinant FAAH overexpressed in African green monkey COS7 cells using […] as substrate assessed as recovery of enzyme activity at 20 x IC50 preincubated for 60 mins followed by 500 fold dilution measured after 10 mins by HPLC analysis; type: cell-based; conditions: COS-7

- inhibition [1]: inactive
- inhibition [2]: 16%
- inhibition [3]: Active
- inhibition [4]: Active
- Selectivity ratio [5]: > 900
- Activity [6]: inactive
- inhibition [7]: Dose-dependent effect
- inhibition [8]: 10%
- inhibition [9]: inactive
- inhibition [10]: Active
- inhibition [11]: Active
SMILES: COc1nn([C@@H](C)c2ccc(CC(C)C)cc2)c(=O)o1
